Results taken from patent US20110015067A1, “Herbicidal Compositions Comprising Pyroxasulfone” (BASF SE, priority 2008, published 2011).

Tests used:
Type in all cases: in vivo
[1] = test system: CHEAL (Chenopodium album); test: post-emergence greenhouse test; details: 15 g ai/ha
Source text: (§1) For the post-emergence treatment, the test plants were first grown to a height of 3 to 20 cm, depending on the plant habit, and only then treated. Here, the herbicidal compositions were suspended or emulsified in water as distribution medium and sprayed using finely distributing nozzles.
(§2) The respective herbicides A and/or safener were formulated as 10% by weight strength suspension concentrate and introduced to the spray liquor with the amount of solvent system used for applying the active compound. Herbicide B and/or safener were used as commercially available formulations and introduced to the spray liquor with the amount of solvent system used for applying the active compound. In the examples, the solvent used was water.
(§3) The test period extended over 20 days. During this time, the plants were tended, and their response to the treatments with active compound was evaluated.
(§4) In the following experiments, the herbicidal activity for the individual herbicide compounds (solo application) and of the mixture was assessed 8 days after treatment (8 DAT) and/or 20 days after treatment (20 DAT).
(§5) The evaluation for the damage caused by the chemical compositions was carried out using a scale from 0 to 100%, compared to the untreated control plants. Here, 0 means no damage and 100 means complete destruction of the plants.

[2] = test system: ALOMY (Alopecurus myosuroides); test: post-emergence greenhouse test
Source text: as §1, §2, §3, §4, §5

[3] = test system: AMARE (Amaranthus retroflexus); test: pre-emergence greenhouse test
Source text: (§6) For the pre-emergence treatment, directly after sowing the active compounds, which had been suspended or emulsified in water, were applied by means of finely distributed nozzles. The containers were irrigated gently to promote germination and growth and subsequently covered with transparent plastic hoods until plant had rooted. This cover caused uniform germination of the tests plants, unless this was adversely affected by active compounds.
as §2, §3, §4, §5

[4] = test system: PANDI (Panicum dichotomiflorum); test: pre-emergence greenhouse test; details: PANDI pre-emergence 7.5 g ai/ha
Source text: as §6, §2, §3, §4, §5

PHBPU (Ipomoea purpurea) = test: pre-emergence greenhouse test
Source text: as §6, §2, §3, §4, §5

ERBVI = test: pre-emergence greenhouse test
Source text: as §6, §2, §3, §4, §5

[5] = test system: AMBEL (Ambrosia artemisifolia); test: pre-emergence greenhouse test; details: for observed activity in % destruction: pre-emergence, 15 g ai/ha
Source text: as §6, §2, §3, §4, §5

[6] = test system: PANMI (Panicum milliaceum); test: pre-emergence greenhouse test
Source text: as §6, §2, §3, §4, §5

SETFA (Setaria faberii) = test: pre-emergence greenhouse test
Source text: as §6, §2, §3, §4, §5

[7] = test system: COMBE (Commelina benghalensis); test: pre-emergence greenhouse test; details: for observed activity in % destruction: pre-emergence
Source text: as §6, §2, §3, §4, §5

SETVI (Setaria viridis) = test: pre-emergence greenhouse test
Source text: as §6, §2, §3, §4, §5

SOLNI (Solanum nigrum) = test: pre-emergence greenhouse test; details: for observed activity in % destruction: pre-emergence, 7.5 g ai/ha
Source text: as §6, §2, §3, §4, §5

[8] = test system: BRAPL (Brachiaria plantaginea); test: pre-emergence greenhouse test; details: BRAPL pre-emergence 7.5 g ai/ha
Source text: as §6, §2, §3, §4, §5

[9] = test system: ECHCG (Echinochloa crus-galli); test: pre-emergence greenhouse test
Source text: as §6, §2, §3, §4, §5

[10] = test system: ALOMY (Alopecurus myosuroides); test: pre-emergence greenhouse test; details: for observed activity in % destruction: pre-emergence, 7.5 g ai/ha
Source text: as §6, §2, §3, §4, §5

[11] = AMARE pre-emergence 3.75 g ai/ha
[12] = AMARE pre-emergence 7.5 g ai/ha
[13] = COMBE pre-emergence 3.75 g ai/ha
[14] = COMBE pre-emergence 7.5 g ai/ha
[15] = SETVI pre-emergence 3.75 g ai/ha
[16] = SOLNI pre-emergence 7.5 g ai/ha
[17] = ECHCG pre-emergence 7.5 g ai/ha
[18] = ALOMY pre-emergence 3.75 g ai/ha
[19] = ALOMY pre-emergence 7.5 g ai/ha

COCc1cnc(C2=NC(C)(C(C)C)C(=O)N2)c(C(=O)O)c1 (stereo not shown) [imazamox]
75%: observed % destruction 20 DAT [4] | observed % destruction 20 DAT ([7]; COMBE pre-emergence 15 g ai/ha) | observed % destruction 20 DAT ([9]; ECHCG pre-emergence 15 g ai/ha)
50%: observed % destruction 8 DAT ([5]; AMBEL pre-emergence 15 g ai/ha) | observed activity in % destruction ([5]; 8 DAT) | observed % destruction 8 DAT ([7]; COMBE pre-emergence 15 g ai/ha) | observed % destruction 8 DAT ([10]; ALOMY pre-emergence 15 g ai/ha)
80%: observed % destruction 20 DAT [3, 12] | observed % destruction 20 DAT ([5]; AMBEL pre-emergence 15 g ai/ha) | observed activity in % destruction ([5]; 20 DAT) | observed % destruction 20 DAT (SOLNI (Solanum nigrum); [16]) | observed activity in % destruction (SOLNI (Solanum nigrum); 20 DAT) | observed % destruction 20 DAT ([10]; ALOMY pre-emergence 15 g ai/ha)
25%: observed activity in % destruction ([2]; 3.75 g ai/ha, 8 DAT)
70%: observed % destruction 20 DAT (PHBPU (Ipomoea purpurea); PHBPU pre-emergence 15 g ai/ha)
0%: observed activity in % destruction ([1]; 8 DAT) | observed activity in % destruction ([1]; 20 DAT) | observed % destruction 20 DAT (ERBVI; ERBVI pre-emergence 3.75 g ai/ha) | observed % destruction 20 DAT (ERBVI; ERBVI pre-emergence 7.5 g ai/ha) | observed % destruction 8 DAT (SETVI (Setaria viridis); [15]) | observed % destruction 8 DAT [8] | observed % destruction 20 DAT ([9]; ECHCG pre-emergence 3.75 g ai/ha)
85%: observed % destruction 20 DAT (SETFA (Setaria faberii); SETFA pre-emergence 15 g ai/ha) | observed % destruction 8 DAT (SETVI (Setaria viridis); SETVI pre-emergence 15 g ai/ha) | observed % destruction 20 DAT (SOLNI (Solanum nigrum); SOLNI pre-emergence 15 g ai/ha)
95%: observed % destruction 20 DAT ([3]; AMARE pre-emergence 15 g ai/ha) | observed % destruction 20 DAT (SETVI (Setaria viridis); SETVI pre-emergence 15 g ai/ha)
55%: observed % destruction 8 DAT [3, 12]
45%: observed % destruction 20 DAT [8]
40%: observed % destruction 8 DAT [7, 14] | observed activity in % destruction ([7]; 7.5 g ai/ha, 8 DAT) | observed % destruction 20 DAT [10, 18] | observed % destruction 20 DAT [10, 19] | observed activity in % destruction ([10]; 20 DAT)
90%: observed % destruction 20 DAT (SETVI (Setaria viridis); SETVI pre-emergence 7.5 g ai/ha)
20%: observed % destruction 8 DAT [3, 11] | observed % destruction 8 DAT [4] | observed % destruction 20 DAT (PHBPU (Ipomoea purpurea); PHBPU pre-emergence 7.5 g ai/ha) | observed % destruction 20 DAT (ERBVI; ERBVI pre-emergence 15 g ai/ha) | observed % destruction 20 DAT ([6]; PANMI pre-emergence 3.75 g ai/ha) | observed % destruction 8 DAT [7, 13] | observed activity in % destruction ([7]; 3.75 g ai/ha, 8 DAT) | observed % destruction 20 DAT (SETVI (Setaria viridis); [15]) | observed % destruction 20 DAT (SOLNI (Solanum nigrum); SOLNI pre-emergence 3.75 g ai/ha) | observed % destruction 8 DAT [9, 17] | observed % destruction 8 DAT [10, 18]
65%: observed % destruction 8 DAT ([3]; AMARE pre-emergence 15 g ai/ha)
35%: observed activity in % destruction ([2]; 7.5 g ai/ha, 8 DAT) | observed activity in % destruction ([2]; 7.5 g ai/ha, 20 DAT) | observed % destruction 20 DAT [7, 14] | observed activity in % destruction ([7]; 7.5 g ai/ha, 20 DAT)
30%: observed activity in % destruction ([2]; 3.75 g ai/ha, 20 DAT) | observed % destruction 20 DAT [3, 11] | observed % destruction 20 DAT ([6]; PANMI pre-emergence 7.5 g ai/ha) | observed % destruction 20 DAT (SETFA (Setaria faberii); SETFA pre-emergence 3.75 g ai/ha) | observed % destruction 20 DAT [7, 13] | observed activity in % destruction ([7]; 3.75 g ai/ha, 20 DAT) | observed % destruction 8 DAT (SOLNI (Solanum nigrum); [16]) | observed activity in % destruction (SOLNI (Solanum nigrum); 8 DAT) | observed % destruction 8 DAT [10, 19] | observed activity in % destruction ([10]; 8 DAT)
10%: observed % destruction 20 DAT [9, 17]
60%: observed % destruction 20 DAT (SETFA (Setaria faberii); SETFA pre-emergence 7.5 g ai/ha) | observed % destruction 8 DAT ([9]; ECHCG pre-emergence 15 g ai/ha)
